Some results are limits rather than exact numbers.

This note sets out measurements from patent EP4786454A1, “HETEROARYL DERIVATIVE AND USE THEREOF” (priority 2023, dated 2025).

The nature of series [1]: Stability in liver microsomes (human). Particulars: h (human liver microsomes), 0.5 mg/mL, read-out: MMS Clint. It counts as in vitro ADME. Here is the method: (§1) The purpose of this study was to evaluate the phase I metabolic stability of the assay sample in liver microsomes from CD-1 mice, Sprague-Dawley (SD) rats, beagle dogs, cynomolgus monkeys, and human.
(§2) The animal and human liver microsomes used in this assay system were purchased from Xenotech, Corning, or other qualified suppliers.
(§3) Preparation of buffer: 73.21 g of potassium phosphate dibasic trihydrate and 10.78 g of potassium dihydrogen phosphate were dissolved in 4000 mL of ultrapure water. The pH of the solution was adjusted to the range of 7.40 ± 0.10 using 10.0% phosphoric acid or 1.00 M potassium hydroxide. Its final concentration was 100 mM.
(§4) Preparation of working solutions: An assay sample powder was prepared into a 10.0 mM stock solution with DMSO, and then further diluted with a suitable organic solvent. The control compounds testosterone, diclofenac, and propafenone were prepared into 10.0 mM stock solutions using DMSO, and then further diluted with a suitable organic solvent.
(§5) Preparation of liver microsome solution: Microsomes of various species were diluted with 100 mM potassium phosphate buffer to a working solution of 0.56 mg/mL. The final concentration of microsomes in the reaction system was 0.500 mg/mL. Detailed preparation procedures were described in the experimental records.
(§6) Preparation of reduced nicotinamide adenine dinucleotide phosphate (NADPH) solution: An appropriate amount of reduced nicotinamide adenine dinucleotide phosphate was dissolved in magnesium chloride solution, and the mixture was shaken to mix well. The final concentrations in the reaction system were 1.00 mM NADPH and 1.00 mM magnesium chloride, respectively. Detailed preparation procedures were described in the experimental records.
(§7) Preparation of stop solution: The stop solution was prepared using acetonitrile containing internal standards (tolbutamide and labetalol). The prepared stop solution was stored at 2.0 to 8.0 °C in a refrigerator. Detailed preparation procedures were described in the experimental records. […]

Series [2] can be described thus: Stability in liver microsomes (mouse). Conditions: m (CD-1 mouse liver microsomes), 0.5 mg/mL, read-out: MMS Clint. It counts as in vitro ADME, CD-1 mice. The method, then:
as §1, §2, §3, §4, §5, §6, §7
(Liver microsomes are a subcellular fraction often used to study metabolism.)

Series [3] concerns male CD-1 mice. Nature of the series: Maximal electroshock-induced epilepsy model, behavioral pharmacodynamics. It counts as in vivo. Particulars: 5 mg/kg orally, one hour before electrical stimulation. An excerpt: This study used behavioral tests in male CD-1 mice to investigate the effects of test compounds on acute epileptic seizures behavior induced by maximal electroshock.
Male CD-1 mice (25 to 35g) were used as the experimental animals and fed with standard feed (Beijing Vital River Laboratory Animal Technology Co., Ltd.).
After arriving at the animal facility, the experimental animals needed to acclimatize for at least one week. The mice were observed daily for vital signs, and randomly divided into groups according to their body weights one day before the drug administration. One hour before the electrical stimulation, different dosages of the test compound were orally administered to each group. On the day of the assay, the male CD-1 mice in each group were anesthetized locally at the cornea with 2% lidocaine. Then, silver bipolar electrodes were used to electrically stimulate the cornea of the mice with 18 mA, 60 Hz, a pulse width of 0.6 ms, and a stimulation time of 1 s to induce seizures. Subsequently, the latency of seizures and the duration of limb rigidity in mice after the electrical stimulation were observed, and the protection rate from seizures for each group was statistically analyzed.
A general note: In the maximal electroshock model the usual endpoint is tonic extension of the hind limbs.

In the case of `CC(C)(C)CC(=O)Nc1nc2c(F)cc(C#N)cn2c1-c1ccc(OC(F)(F)F)cc1` [Compound 1], the CLint scaled at 1 µM was found to be 30 mL/min/kg in series [1] and 220 mL/min/kg in series [2]. In series [3], the “Protection rate from seizures” value was found to be 66.7%.
The matching figures for `CC(C)(C)CC(=O)Nc1nc2c(F)cc(C#N)cn2c1C1=CCCC1` [Compound 3]: 19 mL/min/kg, 103 mL/min/kg and 66.7%.
`CC(C)(C)CC(=O)Nc1nc2c(F)cc(C#N)cn2c1C12CC(C1)C2` [Compound 5]: the CLint scaled at 1 µM was less than 8.6 mL/min/kg in series [1] and less than 38 mL/min/kg in series [2].
